Marks after values point to notes of the source that are not given here.
Assays:
[1] = test system: AZT-resistant strain HIV-1 018c; conditions: PBMC, AZT-resistant HIV-1 018c
[2] = test system: HIV-1 IIIB; experiment: HIV-1 P24 antigen inhibition in chronically infected H9 cells
Protocol: HIV-1 P24 antigen titer was measured according to the operation procedures stated in HIV-1 P24 antigen kit.
100 μl (2×10^5 cells/ml) of H9 cells suspension was seeded into 96-well cell culture plate. Then, 100 μl liquor of 2× diluted medicament or 4-5× diluted positive AZT (8 concentrations) was added. Each dilution was repeated in three wells. The cell control group was established. The cells were incubated in the incubator (37° C., 5% CO2, saturated humidity) and the cytopathy was observed everyday. Four days (96 hours) after administration, the supernatants were sucked out and stored at −20° C. to measure HIV-1-P24 antigen titer. The inhibition effect of the medicament was determined. The cells were dyed with MTT to measure the cytotoxicity.
2.2.2 Reed & Muench Method for Calculating CC50 and EC50 of Medicament in Cell Culture
Calculation Method of Selection Index (SI) of HIV-1 P24 Antigen in Cell Culture SI=CC50/EC50 3.

[3] = test system: human T lymphocytes MT-4; experiment: cytotoxicity by MTT in MT-4 culture; conditions: MT-4 culture with HIV-1 IIIB, 96 hours
[4] = solubility; type: physicochemical
[5] = test system: duck hepatitis B virus (DHBV); experiment: pharmacotherapy test in DHBV infected ducklings, serum DHBV-DNA dot-blot; type: in vivo, Beijing ducklings
[6] = test system: HIV-1 IIIB; experiment: HIV-1 P24 antigen inhibition in MT-4 culture; conditions: MT-4, HIV-1 IIIB
Protocol: MT-4 cell suspension was counted, then 100 μl of suspension (2×10^5 cells/ml) was seeded into 96-well cell culture plate, 50 μl liquor of 2× diluted medicament or 4-5× diluted positive medicament AZT (8 concentrations) was added, respectively, and 50 μl virus suspension with proper titer was add concurrently. Each dilution was repeated in 3 wells and cell control group and virus control group were established. They were incubated at 37° C., 5% CO2 saturated humidity incubator and the cytopathy was observed everyday. On the fourth day after administration (96 hours), the supernatants were sucked out and stored at −20° C. for measuring HIV-1-P24 antigen titer. Accordingly, the inhibition effect of medicament could be calculated, and the cells were dyed with MTT to measure the cytotoxicity.
The medicated cell supernatants infected with MT-4 were diluted after being thawed. HIV-1 P24 titer was measured according to the operation procedure described in HIV-1 P24 antigen kit.
[formula] 2.2.2 Reed & Muench Method for Calculating CC50 and EC50 of Medicament in Cell Culture
[formula] 2.2.3. Calculation Method of Selection Index (SI) of HIV-1 P24 Antigen in Cell Culture SI=CC50/EC50 3.

[7] = test system: AZT-sensitive strain HIV-1 018a; experiment: HIV-1 P24 antigen inhibition in PBMC, AZT-sensitive strain; conditions: PBMC, AZT-sensitive HIV-1 018a
[8] = test system: human T lymphocytes H9 chronically infected with HIV-1 IIIB; experiment: cytotoxicity by MTT in H9 cells chronically infected with HIV-1 IIIB; conditions: H9 cell chronically infected with HIV-1 IIIB, 96 hours
[9] = test system: human peripheral blood mononuclear cell (PBMC); experiment: cytotoxicity by MTT in HIV-infected PBMC culture; conditions: 96 hours
Protocol: 10 μl MTT dye (5 mg/ml) was added to each well, and then incubated at 37° C., 5% CO2 saturated humidity incubator for 4 hours. 100 μl 50% DMF-17% Triton X-100 destainer was added to each well and the mixtures were kept at 37° C. overnight. Then OD570nm values were measured at 570 nm with a luminometer to calculate the median cytotoxicity concentration of medicament (CC50).
The fresh normal human venous blood was taken and PBMC was separated using FiColl separation solution. The 1.5×10^5 cells/ml suspension prepared with the culture fluid containing PHA was seeded into the culture bottle and incubated in the incubator (37° C., 5% CO2) for 72 hours. The cells were collected with cell scrapers then were infected with the 10^−2 viral liquid of AZT-sensitive (018a) or AZT-resistant (018c) viral strain. After absorption for 2 hours, the non-absorbed viruses were washed with serum-free 1640 culture medium. The infected cells were prepared into 1×10^6 cells/ml with the culture fluid, and then were seeded into the 96-well culture board in 100 μl/well. At the same time, 100 μl liquor of 2× diluted AKJ-2 or 5× diluted positive control medicament AZT with different concentrations was added. The cell control group and virus control group were established. Four days (96 hours) after incubating under 37° C., 5% CO2, the supernatants were sucked out and stored at −20° C. to measure HIV-1-P24 antigen titer and calculate the inhibition effect of the medicament. The cells were dyed with MTT to measure the cytotoxicity.

CC(C)=CC[C@H](OC(=O)C=C(C)C)C1=CC(=O)c2c(O)ccc(O)c2C1=O [AKJ, β,β-dimethyl-acryl-alkannin]
Selection index (CC50/EC50) [1]: 5.75 ± 0.67
Median effective concentration (EC50), HIV-1 P24 antigen ([1]; 96 hours): 0.97 ± 0.13 µg/mL
Median effective concentration (EC50), HIV-1 P24 antigen ([2]; H9 cell chronically infected with HIV-1 IIIB, 96 hours): >0.25 ± 0 µg/mL
inhibition effect on HIV-1 IIIB chronically-infected H9 cells ([2]; two lots of tests): no inhibition effect
Median cytotoxicity concentration (CC50) [3]: 0.31 ± 0.04 µg/mL
solubility in DMSO ([4]; DMSO): soluble
solubility in water ([4]; water): insoluble
Serum DHBV-DNA OD490 value (X ± SD) ([5]; Lot I, 25 mg/kg oral bid x 10 days, P3 (third day after cessation)): 0.792 ± 0.13
Serum DHBV-DNA level Inhibitory Rate (%) ([5]; Lot I, 25 mg/kg oral bid x 10 days, P3 vs T0): 5.43%
Serum DHBV-DNA OD490 value (X ± SD) ([5]; Lot I, 25 mg/kg oral bid x 10 days, T0 (day before administration)): 0.851 ± 0.15
Serum DHBV-DNA OD490 value (X ± SD) ([5]; Lot I, 25 mg/kg oral bid x 10 days, T5): 0.767 ± 0.18
Serum DHBV-DNA level Inhibitory Rate (%) ([5]; Lot I, 25 mg/kg oral bid x 10 days, T5 vs T0): 8.81%
Serum DHBV-DNA OD490 value (X ± SD) ([5]; Lot I, 25 mg/kg oral bid x 10 days, T10): 0.762 ± 0.15
Serum DHBV-DNA level Inhibitory Rate (%) ([5]; Lot I, 25 mg/kg oral bid x 10 days, T10 vs T0): 8.73%
Serum DHBV-DNA OD490 value (X ± SD) ([5]; Lot I, 50 mg/kg oral bid x 10 days, P3 (third day after cessation)): 0.696 ± 0.05
Serum DHBV-DNA level Inhibitory Rate (%) ([5]; Lot I, 50 mg/kg oral bid x 10 days, P3 vs T0): 32.39** %
Serum DHBV-DNA OD490 value (X ± SD) ([5]; Lot I, 50 mg/kg oral bid x 10 days, T0 (day before administration)): 1.082 ± 0.23
Serum DHBV-DNA OD490 value (X ± SD) ([5]; Lot I, 50 mg/kg oral bid x 10 days, T5): 0.961 ± 0.23
Serum DHBV-DNA level Inhibitory Rate (%) ([5]; Lot I, 50 mg/kg oral bid x 10 days, T5 vs T0): 9.16%
Serum DHBV-DNA OD490 value (X ± SD) ([5]; Lot I, 50 mg/kg oral bid x 10 days, T10): 0.680 ± 0.09
Serum DHBV-DNA level Inhibitory Rate (%) ([5]; Lot I, 50 mg/kg oral bid x 10 days, T10 vs T0): 33.56** %
Serum DHBV-DNA OD490 value (X ± SD) ([5]; Lot I, 100 mg/kg oral bid x 10 days, P3 (third day after cessation)): 0.667 ± 0.22
Serum DHBV-DNA level Inhibitory Rate (%) ([5]; Lot I, 100 mg/kg oral bid x 10 days, P3 vs T0): 44.91** %
Serum DHBV-DNA OD490 value (X ± SD) ([5]; Lot I, 100 mg/kg oral bid x 10 days, T0 (day before administration)): 1.207 ± 0.23
Serum DHBV-DNA OD490 value (X ± SD) ([5]; Lot I, 100 mg/kg oral bid x 10 days, T5): 0.987 ± 0.26
Serum DHBV-DNA level Inhibitory Rate (%) ([5]; Lot I, 100 mg/kg oral bid x 10 days, T5 vs T0): 17.86* %
Serum DHBV-DNA OD490 value (X ± SD) ([5]; Lot I, 100 mg/kg oral bid x 10 days, T10): 0.757 ± 0.19
Serum DHBV-DNA level Inhibitory Rate (%) ([5]; Lot I, 100 mg/kg oral bid x 10 days, T10 vs T0): 37.09** %
Serum DHBV-DNA OD490 value (X ± SD) ([5]; Lot II, 25 mg/kg oral bid x 10 days, P3 (third day after cessation)): 1.092 ± 0.13
Serum DHBV-DNA level Inhibitory Rate (%) ([5]; Lot II, 25 mg/kg oral bid x 10 days, P3 vs T0): −12.91%
Serum DHBV-DNA OD490 value (X ± SD) ([5]; Lot II, 25 mg/kg oral bid x 10 days, T0 (day before administration)): 1.005 ± 0.22
Serum DHBV-DNA OD490 value (X ± SD) ([5]; Lot II, 25 mg/kg oral bid x 10 days, T5): 1.061 ± 0.08
Serum DHBV-DNA level Inhibitory Rate (%) ([5]; Lot II, 25 mg/kg oral bid x 10 days, T5 vs T0): −8.66%
Serum DHBV-DNA OD490 value (X ± SD) ([5]; Lot II, 25 mg/kg oral bid x 10 days, T10): 0.928 ± 0.09
Serum DHBV-DNA level Inhibitory Rate (%) ([5]; Lot II, 25 mg/kg oral bid x 10 days, T10 vs T0): 5.67%
Serum DHBV-DNA OD490 value (X ± SD) ([5]; Lot II, 50 mg/kg oral bid x 10 days, P3 (third day after cessation)): 1.140 ± 0.25
Serum DHBV-DNA level Inhibitory Rate (%) ([5]; Lot II, 50 mg/kg oral bid x 10 days, P3 vs T0): 14.99%
Serum DHBV-DNA OD490 value (X ± SD) ([5]; Lot II, 50 mg/kg oral bid x 10 days, T0 (day before administration)): 1.375 ± 0.28
Serum DHBV-DNA OD490 value (X ± SD) ([5]; Lot II, 50 mg/kg oral bid x 10 days, T5): 1.075 ± 0.14
Serum DHBV-DNA level Inhibitory Rate (%) ([5]; Lot II, 50 mg/kg oral bid x 10 days, T5 vs T0): 20.22** %
Serum DHBV-DNA OD490 value (X ± SD) ([5]; Lot II, 50 mg/kg oral bid x 10 days, T10): 0.947 ± 0.13
Serum DHBV-DNA level Inhibitory Rate (%) ([5]; Lot II, 50 mg/kg oral bid x 10 days, T10 vs T0): 27.55* %
Serum DHBV-DNA OD490 value (X ± SD) ([5]; Lot II, 100 mg/kg oral bid x 10 days, P3 (third day after cessation)): 0.875 ± 0.17
Serum DHBV-DNA level Inhibitory Rate (%) ([5]; Lot II, 100 mg/kg oral bid x 10 days, P3 vs T0): 18.04* %
Serum DHBV-DNA OD490 value (X ± SD) ([5]; Lot II, 100 mg/kg oral bid x 10 days, T0 (day before administration)): 1.080 ± 0.21
Serum DHBV-DNA OD490 value (X ± SD) ([5]; Lot II, 100 mg/kg oral bid x 10 days, T5): 0.872 ± 0.13
Serum DHBV-DNA level Inhibitory Rate (%) ([5]; Lot II, 100 mg/kg oral bid x 10 days, T5 vs T0): 18.14** %
Serum DHBV-DNA OD490 value (X ± SD) ([5]; Lot II, 100 mg/kg oral bid x 10 days, T10): 0.670 ± 0.14
Serum DHBV-DNA level Inhibitory Rate (%) ([5]; Lot II, 100 mg/kg oral bid x 10 days, T10 vs T0): 36.65** %
Serum DHBV-DNA OD490 value (X ± SD) ([5]; Lot III, 25 mg/kg oral bid x 10 days, P3 (third day after cessation)): 1.035 ± 0.21
Serum DHBV-DNA level Inhibitory Rate (%) ([5]; Lot III, 25 mg/kg oral bid x 10 days, P3 vs T0): 16.14* %
Serum DHBV-DNA OD490 value (X ± SD) ([5]; Lot III, 25 mg/kg oral bid x 10 days, T0 (day before administration)): 1.263 ± 0.35
Serum DHBV-DNA OD490 value (X ± SD) ([5]; Lot III, 25 mg/kg oral bid x 10 days, T5): 1.079 ± 0.23
Serum DHBV-DNA level Inhibitory Rate (%) ([5]; Lot III, 25 mg/kg oral bid x 10 days, T5 vs T0): 11.66* %
Serum DHBV-DNA OD490 value (X ± SD) ([5]; Lot III, 25 mg/kg oral bid x 10 days, T10): 1.076 ± 0.16
Serum DHBV-DNA level Inhibitory Rate (%) ([5]; Lot III, 25 mg/kg oral bid x 10 days, T10 vs T0): 11.96* %
Serum DHBV-DNA OD490 value (X ± SD) ([5]; Lot III, 50 mg/kg oral bid x 10 days, P3 (third day after cessation)): 1.368 ± 0.11
Serum DHBV-DNA level Inhibitory Rate (%) ([5]; Lot III, 50 mg/kg oral bid x 10 days, P3 vs T0): 16.59** %
Serum DHBV-DNA OD490 value (X ± SD) ([5]; Lot III, 50 mg/kg oral bid x 10 days, T0 (day before administration)): 1.649 ± 0.13
Serum DHBV-DNA OD490 value (X ± SD) ([5]; Lot III, 50 mg/kg oral bid x 10 days, T5): 1.459 ± 0.28
Serum DHBV-DNA level Inhibitory Rate (%) ([5]; Lot III, 50 mg/kg oral bid x 10 days, T5 vs T0): 11.03* %
Serum DHBV-DNA OD490 value (X ± SD) ([5]; Lot III, 50 mg/kg oral bid x 10 days, T10): 1.411 ± 0.31
Serum DHBV-DNA level Inhibitory Rate (%) ([5]; Lot III, 50 mg/kg oral bid x 10 days, T10 vs T0): 13.00%
Serum DHBV-DNA OD490 value (X ± SD) ([5]; Lot III, 100 mg/kg oral bid x 10 days, P3 (third day after cessation)): 1.146 ± 0.56
Serum DHBV-DNA level Inhibitory Rate (%) ([5]; Lot III, 100 mg/kg oral bid x 10 days, P3 vs T0): 18.34%
Serum DHBV-DNA OD490 value (X ± SD) ([5]; Lot III, 100 mg/kg oral bid x 10 days, T0 (day before administration)): 1.474 ± 0.38
Serum DHBV-DNA OD490 value (X ± SD) ([5]; Lot III, 100 mg/kg oral bid x 10 days, T5): 1.351 ± 0.30
Serum DHBV-DNA level Inhibitory Rate (%) ([5]; Lot III, 100 mg/kg oral bid x 10 days, T5 vs T0): 2.76%
Serum DHBV-DNA OD490 value (X ± SD) ([5]; Lot III, 100 mg/kg oral bid x 10 days, T10): 1.046 ± 0.42
Serum DHBV-DNA level Inhibitory Rate (%) ([5]; Lot III, 100 mg/kg oral bid x 10 days, T10 vs T0): 28.41** %
Selection index (CC50/EC50) [6]: 4.49 ± 0.94
Median effective concentration (EC50), HIV-1 P24 antigen ([6]; 96 hours): 0.07 ± 0.01 µg/mL
Selection index (CC50/EC50) [7]: 5.12 ± 0.33
Median effective concentration (EC50), HIV-1 P24 antigen ([7]; 96 hours): 1.11 ± 0.11 µg/mL
Median cytotoxicity concentration (CC50) [8]: 1.915 ± 0.09 µg/mL
Median cytotoxicity concentration (CC50) ([9]; PBMC infected with AZT-resistant HIV-1 018c): 5.55 ± 0.136 µg/mL
Median cytotoxicity concentration (CC50) ([9]; PBMC infected with AZT-sensitive HIV-1 018a): 5.66 ± 0.28 µg/mL

Source: patent US7897640B2 (priority 2003, dated 2011)
